Data on seven compounds can be found in patent publication US20200392126A1, “ISOXAZOLYL COMPOUNDS AS RECEPTOR MODULATING COMPOUNDS AND METHODS AND USES THEREOF” (BIONOMICS LIMITED, priority 2017, published 2020).

By IC50 is commonly meant the concentration needed to halve the response being measured.

T1 sequence (P36544 23-502): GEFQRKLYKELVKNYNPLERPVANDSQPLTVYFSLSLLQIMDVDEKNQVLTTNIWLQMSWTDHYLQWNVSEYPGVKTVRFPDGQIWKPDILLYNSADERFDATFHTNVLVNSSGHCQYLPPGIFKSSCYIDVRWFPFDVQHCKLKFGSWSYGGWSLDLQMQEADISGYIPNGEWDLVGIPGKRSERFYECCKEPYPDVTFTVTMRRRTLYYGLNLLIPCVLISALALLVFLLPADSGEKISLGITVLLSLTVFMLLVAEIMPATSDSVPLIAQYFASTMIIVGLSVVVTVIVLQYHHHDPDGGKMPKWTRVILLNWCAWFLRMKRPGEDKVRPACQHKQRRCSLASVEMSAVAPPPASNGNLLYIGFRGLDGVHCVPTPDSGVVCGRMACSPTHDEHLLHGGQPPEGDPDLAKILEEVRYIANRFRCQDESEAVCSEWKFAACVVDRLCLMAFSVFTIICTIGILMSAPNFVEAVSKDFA

One assay concerns the target T1, hnAChR α7/ric3 (Homo sapiens, UniProt P36544).
T1 construct: expressed in transfected cells
Nature of the assay: IonFlux HT electrophysiological recording of hnAChR α7/ric3 currents, inhibition of ACh (200 μM, EC80) peak current. In kind it is cell-based.
Conditions: not given
On the procedure:
All wells included a final DMSO concentration of 0.33% including all control wells.
The solutions for recording hnAChR α7/ric3 currents were:
All recordings were obtained from a holding potential of −60 mV.
Compounds were assayed using bump-in protocol. The compound addition sequence that was used for all additions was the same for all assays. One addition of the EC80 concentration of ACh (200 μM) was added to establish baseline response. The test compounds were tested on cells in increasing concentrations of 0.12, 0.37, 1.1, 3.3, 10 μM±200 μM ACh for all compounds. Each compound was applied for one minutes followed by the addition of 200 μM ACh for 1 second.
Peak inward currents in response to the ACh additions in the presence of increasing concentrations of compound were measured.
Potentiation of ACh Response=(I^Compound^+^ACh/I^ACh)
All data were first exported to an Excel compatible data file and then analyzed using Graph Pad Prism software.
Take `Cc1nocc1S(=O)(=O)N1CCN(c2ccc(F)cc2)CC1` [Compound 8, 4-(4-(4-Fluorophenyl)piperazin-1-ylsulfonyl)-3-methylisoxazole]: the IC50 came to 2200 nM. Same read-out and setting: the result for `Cc1nocc1S(=O)(=O)NC1(c2ccccc2)CCCCC1` [Compound 1, 3-Methyl-N-(1-phenylcyclohexyl)isoxazole-4-sulfonamide] reads 5700 nM.

Staying with this assay, now noted: hnAChR α7/ric3; 0.12-10 μM compound, 1 min preincubation, then 200 μM ACh for 1 s; holding potential −60 mV; read-out: IC50.
In the case of `Cc1nocc1S(=O)(=O)N1CCN(c2ccccn2)CC1` [Compound 10, 3-Methyl-4-(4-(pyridin-2-yl)piperazin-1-ylsulfonyl)isoxazole], the IC50 amounted to 6500 nM. On the same count and under the same terms, the result for `Cc1nocc1S(=O)(=O)NCCc1ccccc1` [Compound 2, 3-Methyl-N-phenethylisoxazole-4-sulfonamide] reads 1700 nM. The same measure, in the same setting: the result for `Cc1nocc1S(=O)(=O)N1CCC(c2ccc(F)cc2)CC1` [Compound 7] reads 400 nM; that for `Cc1nocc1S(=O)(=O)NCCc1ccc(F)cc1` [Compound 3, N-(4-Fluorophenethyl)-3-methylisoxazole-4-sulfonamide], 2200 nM. The same measure, in the same setting: the figure for `Cc1nocc1S(=O)(=O)N1CCc2ccccc2CC1` [Compound 11, 3-Methyl-4-((1,2,4,5-tetrahydro-3H-benzo[d]azepin-3-yl)sulfonyl)isoxazole] is 2900 nM.
